{"source": "patent US20220362386A1", "about": "“LIQUID COMPOSITIONS COMPRISING A LEVODOPA AMINO ACID CONJUGATE AND USES THEREOF” (NeuroDerm, Ltd., priority 2019, published 2022)", "key": {"[1]": {"experiment": "Human blood stability test", "type": "in vitro ADME", "settings": "slope of the percentage decrease of remaining compound; substrate 10 μM; 0-60 minutes", "protocol": "The stability of several LDAA compounds in human blood was tested. The substrate concentration was 10 μM and the incubation time 0, 5, 15, 30 and 60 minutes.\nThe results are described in Table 19, wherein the results describe the Ke, i.e., the slope of the percentage decrease of the remaining amount of the compound, measured at each of the above time points, such that the higher the Ke the faster the metabolism."}, "[2]": {"experiment": "Human liver S9 stability test", "type": "in vitro ADME", "settings": "slope of the percentage decrease of remaining compound; substrate 10 μM; S9 protein 0.2 mg/mL; 0-60 minutes", "protocol": "The stability of several LDAA compounds, in their TFA salt form, in human liver S9 was tested using commercially available liver S9. The substrate concentration was 10 μM, the S9 protein concentration was 0.2 mg/mL, and the incubation time 0, 5, 15, 30 and 60 minutes.\nThe results are described in Table 18, wherein the results describe the Ke, i.e., the slope of the percentage decrease of the remaining amount of the compound, measured at each of the above time points, such that the higher the Ke the faster the metabolism."}, "human plasma": {"system": "human plasma", "experiment": "Protein binding, solid phase extraction (SPE) method", "type": "in vitro ADME", "settings": "1.0E−05M; SPE sample preparation", "protocol": "(§1) A solid phase extraction (SPE) method was used to prepare samples for several compounds in the plasma protein binding assay. The following SPE protocols were followed:\n(§2) Sorbent: Waters Oasis MCX 96—well MicroElution Plate—Cat #186001830BA Sample: 200 μL of plasma spiked at 10 μM with test compound. Sample was diluted 1:1 with 4% phosphoric acid in water and mixed for 15 minutes 1) Place Oasis plate on vacuum manifold and set vacuum to 5″ Hg; 2) Condition with 200 μL methanol; 3) Equilibrate with 200 μL water; 4) Load dilute plasma sample; 5) Wash with 200 μL 2% formic acid in water; 6) Wash with 400 μL methanol; and 7) Elute with 100 μL 5% NH4OH in methanol.\nas §2, with “MAX 96-well” for “MCX 96—well”, “plate—Cat #186001829” for “Plate—Cat #186001830BA”, “5% NH4OH” for “2% formic acid”, “2% formic acid” for “5% NH4OH”"}, "[3]": {"experiment": "Protein binding, solid phase extraction (SPE) method", "type": "in vitro ADME, human", "settings": "human, human plasma, 1.0E−05M, SPE sample preparation", "protocol": "as §1, §2\nas §2, with “MAX 96-well” for “MCX 96—well”, “plate—Cat #186001829” for “Plate—Cat #186001830BA”, “5% NH4OH” for “2% formic acid”, “2% formic acid” for “5% NH4OH”"}, "[4]": {"settings": "0 weeks", "method": "(§5) It is noted that the recovery % compared the amount of any given material as measured at t=28 h (or any other presented value) compared to the amount of that material, at measured at t=0."}, "[5]": {"experiment": "Analytical stability of LD-Tyr/CD formulations by HPLC (Tables 42-45c)", "settings": "for Analytical stability result (HPLC), t = 1 week / Analytical stability result (HPLC), t = 2 weeks: in mg/mL (unit assumed)", "method": "as §5"}, "physchem": {"experiment": "physchem", "type": "physicochemical", "protocol": "The volume of the solution in the bottle was adjusted to 5 ml, either by adding solvent, or be removing any residual solution, after which the bottle was tightly closed and left at 25° C. for stability observation. It is noted that throughout Example 4, the concentrations in the tables below were calculated taking into account the amount of solvent added or the solution removed, in which event, the calculations were performed regarding the 5 ml+(amount removed) as the volume of the solution. It is further noted that throughout this document, unless mentioned otherwise, the stability was measured using the manual visual inspection Bosch apparatus MIH DX, at a magnification of ×1.75.\n(§3) The LD-Tyr free base, prepared according to Example 2, was added to a solvent, as detailed in Table 7 below, and neutralized by addition of NaOH. When maximum solubility was observed, the solution was filtered and then transferred to a bottle that was previously weighed and flushed with nitrogen. The volume of the solution in the bottle was adjusted to 5 ml, after which the bottle was tightly closed and left at 25° C. for stability observation.\n(§4) When maximum solubility was observed, the solution was filtered and then transferred to a bottle that was previously weighed and flushed with nitrogen. The volume of the solution in the bottle was adjusted to 5 ml, after which the bottle was tightly closed and left at 25° C. for stability observation.\nas §4, with “stored” for “left”\nas §4, with “stored” for “left”\nas §3, with “LD-Lys TFA salt,” for “The LD-Tyr free base,”, “1, and which comprises two equivalents of TFA,” for “2,”, “11” for “7”, “stored” for “left”\nas §4, with “As detailed above regarding other solutions, with the LD-Tyr free base when” for “When”\nas §3, with “LD-Lys HCl salt,” for “The LD-Tyr free base,”, “3,” for “2,”, “13” for “7”, “by the” for “by”"}, "[6]": {"experiment": "Stability observation of the solubility solutions at 25° C. (visual inspection for precipitants)", "type": "physicochemical", "protocol": "The volume of the solution in the bottle was adjusted to 5 ml, either by adding solvent, or be removing any residual solution, after which the bottle was tightly closed and left at 25° C. for stability observation. […] It is further noted that throughout this document, unless mentioned otherwise, the stability was measured using the manual visual inspection Bosch apparatus MIH DX, at a magnification of ×1.75."}, "[7]": {"settings": "NB 144-4 formulation, Storage temp. 2-8° C."}, "[8]": {"settings": "NB 144-4 formulation, Storage temp. 25° C."}, "[9]": {"settings": "NB 144-4 formulation, Storage temp. 40° C."}, "[10]": {"settings": "NB 144-32 (F1), 37% LD-Tyr/0.5% CD"}, "[11]": {"settings": "NB 144-34 (F2), 44% LD-Tyr/0.5% CD"}, "[12]": {"settings": "NB 144-39 (F3), 30% LD-Tyr/0.5% CD"}, "[13]": {"settings": "0.75% CD solution, pH 8.5, 240 mg/ml salt"}}, "note": "Structures can show the parent of a compound that is named as a salt. Where two headings read alike, the source gives them in different places. Non-standard residues stand in square brackets, D forms with d. Residues, ends and D or L forms follow the SMILES beside them. Dopa = N[C@@H](Cc1ccc(O)c(O)c1)C(=O)O"}
{"smiles": "NC(=O)[C@@H](N)Cc1ccc(O)c(O)c1", "note": "[LDA (levodopa amide), levodopa amide, reference compound]", "values": [{"measurement": "Ke", "setting": "[1]", "result": 0.0149}, {"measurement": "Ke", "setting": "[2]", "result": "−0.0008"}]}
{"smiles": "N[C@@H](Cc1ccc(O)c(O)c1)C(=O)N[C@@H](CCC(=O)O)C(=O)O", "note": "[LD-Glu TFA salt, Levodopa Glutamic Acid TFA Salt] (H-[Dopa]-Glu-OH)", "values": [{"measurement": "% Protein Bound 1st", "setting": "human plasma", "result": 36.6, "unit": "%"}, {"measurement": "% Protein Bound 2nd", "setting": "human plasma", "result": 49.4, "unit": "%"}, {"measurement": "% Protein Bound Mean", "setting": "human plasma", "result": 43, "unit": "%"}, {"measurement": "recovery at 10 μM", "setting": "[3]; read-out: % Recovery 1st", "result": 110, "unit": "%"}, {"measurement": "recovery at 10 μM", "setting": "[3]; read-out: % Recovery 2nd", "result": 115, "unit": "%"}, {"measurement": "recovery at 10 μM", "setting": "[3]; read-out: % Recovery Mean", "result": 112, "unit": "%"}]}
{"smiles": "C[C@@](Cc1ccc(O)c(O)c1)(NN)C(=O)O", "note": "[CD]", "values": [{"measurement": "Analytical stability result (HPLC), t = 0", "setting": "[4]", "result": 7.37}, {"measurement": "Analytical stability result (HPLC), t = 0", "setting": "[5]; NB 144-4 formulation (30% LD-Tyr/0.75% CD), Storage temp. 2-8° C.", "result": 7.37}, {"measurement": "% retention, t = 1 week", "setting": "[5]; [7]", "result": 99.9, "unit": "%"}, {"measurement": "Analytical stability result (HPLC), t = 1 week", "setting": "[5]; [7]", "result": 7.36}, {"measurement": "% retention, t = 2 weeks", "setting": "[5]; [7]", "result": 99.1, "unit": "%"}, {"measurement": "Analytical stability result (HPLC), t = 2 weeks", "setting": "[5]; [7]", "result": 7.30}, {"measurement": "% retention, t = 1 week", "setting": "[5]; [8]", "result": 99.3, "unit": "%"}, {"measurement": "Analytical stability result (HPLC), t = 1 week", "setting": "[5]; [8]", "result": 7.32}, {"measurement": "% retention, t = 2 weeks", "setting": "[5]; [8]", "result": 100.5, "unit": "%"}, {"measurement": "Analytical stability result (HPLC), t = 2 weeks", "setting": "[5]; [8]", "result": 7.41}, {"measurement": "Analytical stability result (HPLC), t = 0", "setting": "[5]; [9]", "result": 7.37}, {"measurement": "% retention, t = 1 week", "setting": "[5]; [9]", "result": 98.5, "unit": "%"}, {"measurement": "Analytical stability result (HPLC), t = 1 week", "setting": "[5]; [9]", "result": 7.26}, {"measurement": "Concentration (HPLC), t = 0", "setting": "[5]; [10]", "result": 4.78}, {"measurement": "Concentration (HPLC), t = 28 h at 32° C.", "setting": "[5]; [10]", "result": 4.77}, {"measurement": "Concentration (HPLC), t = 0", "setting": "[5]; [11]", "result": 4.84}, {"measurement": "Concentration (HPLC), t = 28 h at 32° C.", "setting": "[5]; [11]", "result": 4.78}, {"measurement": "Concentration (HPLC), t = 0", "setting": "[5]; [12]", "result": 4.86}, {"measurement": "Concentration (HPLC), t = 28 h at 32° C.", "setting": "[5]; [12]", "result": 4.74}]}
{"smiles": "NCCCC[C@H](NC(=O)[C@@H](N)Cc1ccc(O)c(O)c1)C(=O)O", "note": "[LD-Lys HCl salt] (H-[Dopa]-Lys-OH)", "values": [{"measurement": "Appearance", "setting": "physchem; 0.75% CD solution, pH 6.46, 240 mg/ml salt", "result": "Clear"}, {"measurement": "Appearance", "setting": "physchem; [13]", "result": "Clear"}, {"measurement": "solubility thermodynamic", "setting": "physchem; 25 °C, aqueous buffer, thermodynamic from solid, solvent WFI, pH 6.51, HCl counter-ion, read-out: LD-Lys TFA salt concentration", "result": 350, "unit": "mg/mL"}, {"measurement": "Appearance", "setting": "physchem; WFI, pH 6.51, 350 mg/ml salt", "result": "Clear"}, {"measurement": "LD-Lys free base Concentration", "setting": "physchem; solvent 0.75% CD solution, pH 6.46", "result": 200, "unit": "mg/mL"}, {"measurement": "LD-Lys TFA salt concentration", "setting": "physchem; solvent 0.75% CD solution, pH 6.46, HCl counter-ion", "result": 240, "unit": "mg/mL"}, {"measurement": "LD-Lys free base Concentration", "setting": "physchem; solvent 0.75% CD solution, pH 8.5", "result": 200, "unit": "mg/mL"}, {"measurement": "LD-Lys TFA salt concentration", "setting": "physchem; solvent 0.75% CD solution, pH 8.5, HCl counter-ion", "result": 240, "unit": "mg/mL"}, {"measurement": "LD-Lys free base Concentration", "setting": "physchem; solvent WFI, pH 6.51", "result": 290, "unit": "mg/mL"}, {"measurement": "Stability", "setting": "[6]; [13]", "result": "Precipitated* (precipitated within 12 hours at room temperature)"}, {"measurement": "Stability", "setting": "[6]; WFI, pH 6.51, 350 mg/ml salt", "result": "Stable (physically stable for at least 12 hours)"}]}
